# Laboratory results taken from patent US10017481B2, “Conformationally constrained, fully synthetic macrocyclic compounds” (POLYPHOR AG, priority 2012, dated 2018).
# Read-outs that look alike come from different tables or passages of the source.
# Experiments:
# [1] = target: T1, Human recombinant cathepsin S (Homo sapiens, UniProt P25774); conditions: reference compound of the CatS assay; 0.1 μg/ml enzyme, acetate buffer pH 4.5, 25° C.; cited from earlier work
# T1 construct: host or cells: murine myeloma NS0 cells
# [2] = target: T1, Human recombinant cathepsin S; test: Cathepsin S (CatS) enzyme assay; type: biochemical; conditions: for inhibition at 10 µM: 10 μM compound
# Protocol: (§1) 2. Enzyme Assays for the Peptidase Endothelin Converting Enzyme-1 (ECE-1) and for the Cysteine Protease Cathepsin S (CatS)
# (§2) The assays were performed according to provider's (Ricerca Biosciences, LLC) protocols which in turn are based on literature procedures (for ECE-1 cf.: O. Valdenaire et al., Eur. J. Biochem. 1999, 264, 341-349; F. D. Russell, A. P. Davenport, Circ. Res. 1999, 84, 891-896; and for CatS: G P Shi et al., J. Biol. Chem. 1992, 267, 7258-62; D Brömme et al., J. Biol. Chem. 1993 268, 4832-4838.).
# Human recombinant cathepsin S expressed in a murine myeloma NS0 cells is used. Test compound and/or vehicle is preincubated with 0.1 μg/ml enzyme in modified acetate buffer pH 4.5 for 15 minutes at 25° C. The reaction is initiated by addition of […] Z-Leu-Arg-AMC for another 30 minutes' incubation period. Determination of the amount of AMC formed is read spectrofluorimetrically at 360 nm/465 nm. […]
# IC50 values were determined by a non-linear, least squares regression analysis using MathIQ™ (ID Business Solutions Ltd., UK). Inhibition constants K were calculated according to the equation of Cheng and Prusoff (Y. Cheng, W. H. Prusoff, Biochem. Pharmacol. 1973, 22, 3099-3108) using the observed IC50 of the tested compound, the concentration of radioligand employed in the assay, and the historical values for the KD of the ligand. The Hill coefficient (nH), defining the slope of the competitive binding curve, was calculated using MathIQ™.
# Human recombinant ECE-1 = target: T2, Human recombinant ECE-1 (Homo sapiens, UniProt P42892); test: Endothelin converting enzyme-1 (ECE-1) enzyme assay; type: biochemical; conditions: for inhibition at 10 µM: read-out: % Inhibition at 10 μM
# T2 construct: host or cells: murine myeloma NS0 cells
# T2 sequence (P42892 1-770): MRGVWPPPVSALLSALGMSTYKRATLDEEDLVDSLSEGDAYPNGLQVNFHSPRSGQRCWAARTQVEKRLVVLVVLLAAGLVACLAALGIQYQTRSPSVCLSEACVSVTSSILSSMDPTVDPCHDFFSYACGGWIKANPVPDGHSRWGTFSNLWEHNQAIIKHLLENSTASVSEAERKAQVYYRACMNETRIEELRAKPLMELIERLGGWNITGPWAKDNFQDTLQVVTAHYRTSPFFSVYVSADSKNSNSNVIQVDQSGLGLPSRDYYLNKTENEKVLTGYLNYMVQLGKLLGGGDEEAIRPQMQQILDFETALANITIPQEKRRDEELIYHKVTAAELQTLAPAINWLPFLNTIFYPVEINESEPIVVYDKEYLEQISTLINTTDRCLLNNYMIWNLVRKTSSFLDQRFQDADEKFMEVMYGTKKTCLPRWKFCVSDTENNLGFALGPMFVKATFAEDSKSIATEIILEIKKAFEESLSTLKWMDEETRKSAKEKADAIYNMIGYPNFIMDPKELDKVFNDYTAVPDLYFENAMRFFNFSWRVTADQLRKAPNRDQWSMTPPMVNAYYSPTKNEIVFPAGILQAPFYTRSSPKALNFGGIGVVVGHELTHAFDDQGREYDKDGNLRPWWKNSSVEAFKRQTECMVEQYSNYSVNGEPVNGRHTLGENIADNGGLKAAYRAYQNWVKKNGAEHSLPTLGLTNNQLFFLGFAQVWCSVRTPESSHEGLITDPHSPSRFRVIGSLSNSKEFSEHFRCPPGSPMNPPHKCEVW
# Protocol: as §1, §2
# Human recombinant ECE-1 expressed in murine myeloma cells NS0 is used. Test compound and/or vehicle is preincubated with 20 ng/ml enzyme in modified MES buffer pH 6.0 for 15 minutes at 25° C. The reaction is initiated by addition of […] Mca-[…]Dnp) for another 60 minutes' incubation period. Determination of the amount of Mca-Arg-Pro-Pro-Gly-Phe-Ser-Ala formed is read […] at 320 nm/405 nm. Compounds are screened at […].
# IC50 values were determined by a non-linear, least squares regression analysis using MathIQ™ (ID Business Solutions Ltd., UK). […] The Hill coefficient (nH), defining the slope of the competitive binding curve, was calculated using MathIQ™.
# [3] = target: T3, Bombesin receptor subtype 3 (BB3 receptor) (Homo sapiens, UniProt P32247); test: Ca2+ flux (FLIPR) assay, BB3 receptor, agonist/antagonist mode; type: cell-based; conditions: agonist mode
# T3 construct: expressed in transfected cells; host or cells: Ca2+ optimized hematopoietic cell lines (rat)
# T3 sequence (P32247 1-399): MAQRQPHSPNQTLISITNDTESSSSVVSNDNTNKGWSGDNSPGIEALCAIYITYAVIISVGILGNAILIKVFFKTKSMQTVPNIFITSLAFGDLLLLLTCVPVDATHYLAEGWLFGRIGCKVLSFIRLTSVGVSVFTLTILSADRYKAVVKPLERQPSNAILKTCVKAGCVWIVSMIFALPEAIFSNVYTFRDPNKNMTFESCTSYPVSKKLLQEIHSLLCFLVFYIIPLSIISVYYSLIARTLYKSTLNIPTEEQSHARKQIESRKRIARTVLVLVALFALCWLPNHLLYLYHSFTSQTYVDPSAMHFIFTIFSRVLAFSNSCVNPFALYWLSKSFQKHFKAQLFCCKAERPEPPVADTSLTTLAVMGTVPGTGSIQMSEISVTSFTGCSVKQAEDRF
# Protocol: Biological and Pharmacological Methods 1. Ca^2+ Flux Assays for the GPCRs Oxytocin Receptor (OT Receptor), Thyrotropin-Releasing Hormone Receptor (TRH Receptor) and Bombesin Receptor Subtype 3 (BB3 Receptor)
# Assays were performed on a FLIPR^TETRA fluorometric imaging plate reader (Molecular Devices) with ScreenWorks Version 2 (Molecular Devices) as device operating and data analysis software.
# Dose dependent agonist and antagonist activities were determined. Percentage activation and percentage inhibition values were determined.
# Percentage activation was determined upon initial addition of the sample compounds followed by 10 minutes' incubation at 25° C. Following compound incubation, reference agonists were added at EC80 to determine percentage inhibition.
# Reference agonists were purchased from reputable commercial vendors and prepared according to each ligand's specifications. All handling of ligands were done to ensure proper control throughout the experiments.
# Example compounds were weighed on a Microbalance (Mettler MX5) and dissolved in 100% DMSO to a final concentration of 2.5 mM and subsequently diluted into the assay buffer.
# The assay buffer was a supplemented HBSS (Hank's Balanced Salt Solution). HBSS was supplemented with 20 mM HEPES (4-(2-hydroxyethyl)-piperazin-1-ethansulfonic acid) and 2.5 mM Probenecid (Sigma P8761).
# GPCR assays were performed using Ca^2+ optimized hematopoietic cell lines (rat) with cultures never exceeding 90% confluency. Cells were harvested and seeded (from cultures at less than 90% confluency) at 50000 cells/well for a 96-well plate (12500 cells/well for 384). After seeding, the assay plates were incubated for 45 minutes at room temperature. After room temperature incubation, the assay plates were incubated at 37° C. 5% CO2 for 24 hours prior to assaying.
# All GPCR assays were performed using Fluo-8 Ca^2+ dye.
# Ca^2+ dye was prepared at 1× dye concentration in GPCR assay buffer. After 24 hours of incubation, cells were washed with GPCR assay buffer, and then Ca^2+-dye (100 μL/well) was added.
# The plates were incubated for 90 minutes at 30° C. 5% CO2 prior to FLIPR assay.
# Compound plates were prepared to add 50 μL/well during the agonist assay mode. During the FLIPR assay, 50 μL/well from the compound plate was diluted 3-fold into the existing 100 μL/well from the dye loading step. Therefore all compounds were prepared as 3× the final concentration desired in the assay.
# After completion of the first single addition assay run, assay plate was removed from the FLIPR Tetra and placed at 25° C. for 7 minutes before antagonist assay.
# Using the EC80 values determined during the agonist assay, all pre-incubated sample compound and reference antagonist (if applicable) wells were stimulated at the EC80 of the reference agonist. As reference ligands for these assays their obvious natural ligands oxytocin (OT), thyrotropin-releasing hormone (TRH) and bombesin (6-14) [BN(6-14)] were used.
# After the addition of the reference agonist fluorescence was monitored for 180 sec using FLIPR Tetra.
# From the FLIPR data, with negative control correction enabled, the maximum statistic for each well was exported and percentage activation relative to Emax control was calculated.
# T1 sequence (P25774 115-331): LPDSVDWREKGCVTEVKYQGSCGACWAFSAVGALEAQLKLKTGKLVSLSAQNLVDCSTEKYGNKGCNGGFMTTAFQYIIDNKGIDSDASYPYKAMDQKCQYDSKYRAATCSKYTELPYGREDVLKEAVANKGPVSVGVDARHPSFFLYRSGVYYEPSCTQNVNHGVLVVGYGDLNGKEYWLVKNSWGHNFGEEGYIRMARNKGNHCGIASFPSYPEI
Agonist activity % activation at 12.5 μM [3] [%],Structure (SMILES),IC50 [2] [µM],inhibition at 10 µM [2] [%],IC50 (Human recombinant ECE-1) [µM],inhibition at 10 µM (Human recombinant ECE-1) [%],also measured
,CC(C)C[C@H](NC(=O)[C@H]1O[C@@H]1C(=O)O)C(=O)NCCCCN=C(N)N [E-64],,,,,IC50 [1]: 0.0014 µM
,"CN1CCC[C@H](NC(=O)OCc2ccccc2)C(=O)N2C[C@@H](NC(=O)Cc3ccc4ccccc4c3)C[C@H]2COc2ccccc2-c2cccc(c2)C1=O [Ex. 18, benzyl N-[(10S,12S,16S)-20-methyl-12-{[2-(2-naphthyl)acetyl]amino}-15,21-dioxo-8-oxa-14,20-diazatetracyclo[20.3.1.0^2,7.0^10,14]hexacosa-1(26),2,4,6,22,24-hexaen-16-yl]carbamate]",3.65,82,3.01,98,
,"CN1CCC[C@H](NC(=O)Cc2ccccc2)C(=O)N2C[C@@H](NC(=O)Cc3ccc4ccccc4c3)C[C@H]2COc2ccccc2-c2cccc(c2)C1=O [Ex. 25, N-[(10S,12S,16S)-20-methyl-15,21-dioxo-16-[(2-phenylacetyl)amino]-8-oxa-14,20-diazatetracyclo[20.3.1.0^2,7.0^10,14]hexacosa-1(26),2,4,6,22,24-hexaen-12-yl]-2-(2-naphthyl)acetamide]",3.18,87,4.28,97,
,"CN1CCC[C@H](NC(=O)c2ccccc2)C(=O)N2C[C@@H](NC(=O)Cc3ccc4ccccc4c3)C[C@H]2COc2ccccc2-c2cccc(c2)C1=O [Ex. 26, N-[(10S,12S,16S)-20-methyl-12-{[2-(2-naphthyl)acetyl]amino}-15,21-dioxo-8-oxa-14,20-diazatetracyclo[20.3.1.0^2,7.0^10,14]hexacosa-1(26),2,4,6,22,24-hexaen-16-yl]benzamide]",3.83,81,4.07,98,
84,"CN1CC[C@H](NC(=O)Cc2ccc3ccccc3c2)C(=O)N2C[C@@H](O)C[C@H]2COc2ccsc2-c2cc(n(C)n2)C1=O [Ex. 265, N-[(9S,11S,15S)-11-hydroxy-18,21-dimethyl-14,19-dioxo-7-oxa-3-thia-13,18,21,22-tetraazatetracyclo[18.2.1.0^2,6.0^9,13]tricosa-1(22),2(6),4,20(23)-tetraen-15-yl]-2-(2-naphthyl)acetamide]",,,,,EC50 [3]: 0.63 µM
61,"CN1CC[C@H](NC(=O)Cc2cccc3ccccc23)C(=O)N2C[C@@H](O)C[C@H]2COc2ccsc2-c2cc(n(C)n2)C1=O [Ex. 267, N-[(9S,11S,15S)-11-hydroxy-18,21-dimethyl-14,19-dioxo-7-oxa-3-thia-13,18,21,22-tetraazatetracyclo[18.2.1.0^2,6.0^9,13]tricosa-1(22),2(6),4,20(23)-tetraen-15-yl]-2-(1-naphthyl)acetamide]",,,,,
60,"CO[C@H]1C[C@H]2COc3ccsc3-c3cc(n(C)n3)C(=O)N(C)CC[C@H](NC(=O)Cc3ccc4ccccc4c3)C(=O)N2C1 [Ex. 275, N-[(9S,11S,15S)-11-methoxy-18,21-dimethyl-14,19-dioxo-7-oxa-3-thia-13,18,21,22-tetraazatetracyclo[18.2.1.0^2,6.0^9,13]tricosa-1(22),2(6),4,20(23)-tetraen-15-yl]-2-(2-naphthyl)acetamide]",,,,,EC50 [3]: 0.78 µM
39,"CN1CC[C@H](NCCc2ccc3ccccc3c2)C(=O)N2C[C@@H](O)C[C@H]2COc2ccsc2-c2cc(n(C)n2)C1=O [Ex. 282, (9S,11S,15S)-11-hydroxy-18,21-dimethyl-15-{[2-(2-naphthyl)ethyl]amino}-7-oxa-3-thia-13,18,21,22-tetraazatetracyclo[18.2.1.0^2,6.0^9,13]tricosa-1(22),2(6),4,20(23)-tetraene-14,19-dione]",,,,,
